How the values were obtained:
[1] = tested on: HeLa cells and various other culture cells; test: Survival rate of a variety of cells, MTT method (all cell lines together); format: cell-based
Text: (§1) In this Example, HeLa cells and various other culture cells were used to measure the survival rate during the above-mentioned reporter analysis and VST addition. Specifically, in addition to HeLa cells (human cervical cancer cells), MCF-7 (human breast cancer cells), PC12NH (rat pheochromocytoma), MDA-MB-231 (human breast cancer cells), TIG-3 (human normal fibroblast cells), HeLa 786C cells (human cervical cancer cells), Saos-2 (telomerase and p53-deficient human cancer cells) and SUSM-1 (telomerase-deficient human cancer cells) were used.
(§2) The direct growth suppression activity of VST on these cells was measured using the MTT method. 100 μL cell suspension (5×10^4/mL) of each of the above-mentioned cells was dispensed into each well of a 96-well plate and cultured for 6 hours at 37° C. After culturing, VST solution diluted stepwise as in Example 4 was added thereto and cultured for another 24 hours. After culturing for 24 hours, 0.05 g/mL MTT solution (10 μL) was added to each well and incubation was performed at 37° C. for 4 hours. The medium was then removed, DMSO (100 μL) was added, and the absorbance at 530 nm was measured (FIG. 8).

[2] = tested on: PC12NH; test: Direct growth suppression, MTT method; format: cell-based; conditions: Rattus norvegicus, 24 hours, read-out: IC50 of VST
Text: as §1, §2

[3] = tested on: HeLa cells; test: Direct growth suppression, MTT method; format: cell-based; conditions: Homo sapiens, 24 hours, read-out: IC50 of VST
Text: as §1, §2

[4] = tested on: MDA-MB-231; test: Direct growth suppression, MTT method; format: cell-based; conditions: Homo sapiens, 24 hours, read-out: IC50 of VST
Text: as §1, §2

[5] = tested on: TIG-3; test: Direct growth suppression, MTT method; format: cell-based; conditions: Homo sapiens, 24 hours, read-out: IC50 of VST
Text: as §1, §2

[6] = tested on: HeLa786C; test: Direct growth suppression, MTT method; format: cell-based; conditions: Homo sapiens, 24 hours, read-out: IC50 of VST
Text: as §1, §2

[7] = tested on: Saos-2; test: Direct growth suppression, MTT method; format: cell-based; conditions: Homo sapiens, 24 hours, read-out: IC50 of VST
Text: as §1, §2

[8] = tested on: MCF-7; test: Direct growth suppression, MTT method; format: cell-based; conditions: Homo sapiens, MCF7, 24 hours, read-out: IC50 of VST
Text: as §1, §2

[9] = tested on: SUSM-1; test: Direct growth suppression, MTT method; format: cell-based; conditions: Homo sapiens, 24 hours, read-out: IC50 of VST
Text: as §1, §2

[10] = tested on: GRP78 promoter; test: GRP78 promoter luciferase reporter analysis in HeLa78C6 cells, with tunicamycin-induced endoplasmic reticulum stress; format: cell-based, human
Experimental: Screening for natural substances that may regulate the expression of GRP78 was performed. Specifically, herbal medicines, and respective metabolites of fungus and actinomyces were prepared as test samples. A screening system was prepared as follows. A GRP78 promoter region (−132 to +7) comprising three ERSE was inserted into the KpnI-BglII site of the multicloning site of pGL3-basic vector (Promega), and a luciferase gene was linked as a reporter gene downstream of the GRP78 promoter to construct a vector. […]
The cell suspension (100 μL) was dispensed into each well of a 96-well plate and incubated at 37° C. in 5% CO2 for 6 hours. […] Then, luciferase activity of the cells was measured using a luciferase measurement kit (Luciferase Assay System: Promega, cat# E1501) following the instruction attached to the kit.
The main culture was separated into culture supernatant and mycelial cake by centrifugation. Similar to Example 1, the activities to suppress GRP78 expression were measured by the reporter analysis method for the culture supernatant and mycelial cake product that was obtained by homogenizing the mycelial cake, respectively. […] Then, luciferase activity of the cells was measured using a luciferase measurement kit.
Using pure VST purified in Example 3, its activity to suppress GRP78 promoter expression was quantitated. […]

IC50 [3]: > 100 µM
IC50 [4]: > 100 µM
IC50 [6]: 52.9 µM
IC50 [8]: > 100 µM
SMILES: CC/C1=C\C(CO)CC(C)C(OC2CC(O)C(OC3CC(OC)C(OC4CC(O)C(O)C(C)O4)C(C)O3)C(C)O2)C(C)CCCC2(C)C=C(C)C(C)CC23OC(=O)C(=C3O)C(=O)C2(CC)C1C(C)=CC1C(O)CC(=O)C(C)C12 (stereo not shown) [VST, versipelostatin]
degree of decrease of survival rate ([1]; VST 100 μg/mL, many cell lines): ≤ 50%
survival rate ([1]; VST approximately 10 μg/mL): slight decrease was observed in a few cell lines
survival rate ([1]; VST final concentration of 1 μg/mL, all cell lines): No decrease in the survival rate was observed
IC50 [2]: > 100 µM
IC50 [5]: > 100 µM
IC50 [7]: > 100 µM
IC50 [9]: > 100 µM
suppression of the increase of luciferase activity (GRP78 promoter expression) due to tunicamycin ([10]; sample added 30 min before tunicamycin 2 μg/mL, 18 hours): suppressed in concordance with the increase in VST concentration
luciferase expression from the GRP78 promoter, VST alone ([10]; without tunicamycin addition): did not affect the expression of luciferase
